Biological target: T1, FsqB (Aspergillus fumigatus, UniProt Q4WD43)
T1 sequence (Q4WD43 1-497): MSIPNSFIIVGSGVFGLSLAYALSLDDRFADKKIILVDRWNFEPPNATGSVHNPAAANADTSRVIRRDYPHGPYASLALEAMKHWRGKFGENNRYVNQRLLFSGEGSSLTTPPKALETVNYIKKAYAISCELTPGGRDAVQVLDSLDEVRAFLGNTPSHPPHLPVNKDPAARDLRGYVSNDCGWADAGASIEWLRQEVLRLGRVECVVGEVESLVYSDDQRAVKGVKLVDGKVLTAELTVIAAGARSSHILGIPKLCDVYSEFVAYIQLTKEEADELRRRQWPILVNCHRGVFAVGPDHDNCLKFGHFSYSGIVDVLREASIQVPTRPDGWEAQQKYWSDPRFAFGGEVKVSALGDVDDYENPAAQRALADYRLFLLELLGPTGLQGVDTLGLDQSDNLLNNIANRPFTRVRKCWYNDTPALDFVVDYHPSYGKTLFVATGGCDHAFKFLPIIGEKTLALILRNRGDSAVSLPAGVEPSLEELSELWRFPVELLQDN
Assay: tryptic digest UHPLC-MS/MS
Type: binding
Conditions: covalent, bound to cysteine-414

## Cc1cc2nc3c(=O)[nH]c(=O)nc-3n(C[C@H](O)[C@H](O)[C@H](O)COP(=O)(O)OP(=O)(O)OC[C@H]3O[C@@H](n4cnc5c(N)ncnc54)[C@H](O)[C@@H]3O)c2cc1C [FAD]
  tryptic digest UHPLC-MS/MS; flavin fluorescence: presence of FAD, which was found to be covalently bound to cysteine-414

— paper PMC5049701 (Nature chemical biology, 2016)
